Source: patent US20030100508A1, “Carbohydrate epitope mimic compounds and uses thereof” (priority 1999, published 2003)

Tests used:
[1] = test system: embryonic neural cell cultures; experiment: Embryonic neural cell cultures treated with L1 and chemotherapeutic agents; format: cell-based; details: with cisplatin and vincristin; experiments not detailed
Text: Thus, in view of the recognized and previously described role of HNK-1 expressing cells, natural killer cells, in the surveillance of tumors and virus-infected cells, the carbohydrate epitope mimic peptides can be utilized in enhancing, activating or otherwise modulating the surveillance and clearance of tumors and virus-infected cells. The carbohydrate epitope mimic peptides of the present invention may also have use in the protection of cells, particularly neural cells from chemotherapeutic agents. In experiments not specifically detailed in the Examples herein, the inventors treated embryonic neural cell cultures with a combination of the neural cell adhesion molecule L1 and chemotherapeutic agents, including cisplatin and vincristin. The cell cytopathic effects of the chemotherapeutic agents were reduced in te presence of L1. L1expresses the HNK-1 epitope and a good portion of L1 homophilic binding is HNK-1 mediated. Thus, it is contemplated that the L2/HNK-1 epitope mimic peptide of the present invention can be utilized in the protection of cells, particularly neural cells from chemotherapeutic agents. Untoward cellular cytotoxic effects and problematic symptoms associated therewith are a recognized and limiting side effect of chemotherapy, inherently limiting the dose of the agents which can be administered.

HNK-1 antibody = experiment: Phage ELISA: binding of phage clones to coated HNK-1 antibody; parameters: species or system mouse; details: 100 μl culture supernatant; antibody 1 μg/ml coating
Protocol: (§1) Comparative binding of the HNK-1 selected phage/positive clones versus the L2-412 selected 15-15 phage to bound L2-412 antibody, IgG, HNK-1, and IgM is shown FIG. 14. Supernatant (100 μl) from an overnight culture of bacteria secreting phade were incubated with coated antibodies (100 μl of 1 μg/ml useded for coating) and detected with HRP-coupled anti-phage antibody.
Individual colonies resistant to tetracycline and kanamycin were grown in LB containing 20 μg/mil tetracycline in 96-wells plates (Nunc) overnight at 37° C. (300 μl/well), then centrifuged 10 minutes at 3000 rpm in Jouan centrifuge and the supernatant (100 μl) was incubated for 2 hr in another 96-well plate previously coated with mAbL2-412 (100 μl, μg/l ml overnight at 4° C.) and blocked by incubation for 2 hours with PBS-0.5% (w/v) BSA. After washing 5 times, the binding of the phages was detected by incubation with HRP-conjugated anti-M13 antibody (Pharmacia, Biotech.) for 1 hour at a dilution of 1:2000. The peroxidase reaction was started by the addition of 100 μl developer containing 0.01% hydrogen peroxide and 0.1% (w/v) 2,2′-azino-bis(3-ethylbenzthiazoline-6-sulfonic acid)-diammonium salt (ABTS, Boehringer Mannheim) in HRP buffer (0.1M sodium acetate, 0.05M NaH2PO4, pH adjusted to 4.2 with acetic acid). The absorbance of the colored reaction product was determined at 405 nm in a Multiscan TitertekPlus (Flow, Switzerland). […] Two individual colonies were picked and re-assayed for positivity towards mAb L2-412. Positive single colonies were stored in 40% glycerol at −80° C.

L2-412 antibody [2] = experiment: Phage ELISA: binding of phage clones to coated L2-412 antibody; parameters: species or system rat; details: 100 μl culture supernatant; antibody 1 μg/ml coating
Protocol: as §1
Individual colonies resistant to tetracycline and kanamycin were grown in LB containing 20 μg/mil tetracycline in 96-wells plates (Nunc) overnight at 37° C. (300 μl/well), then centrifuged 10 minutes at 3000 rpm in Jouan centrifuge and the supernatant (100 μl) was incubated for 2 hr in another 96-well plate previously coated with mAbL2-412 (100 μl, μg/l ml overnight at 4° C.) and blocked by incubation for 2 hours with PBS-0.5% (w/v) BSA. After washing 5 times, the binding of the phages was detected by incubation with HRP-conjugated anti-M13 antibody (Pharmacia, Biotech.) for 1 hour at a dilution of 1:2000. […] The absorbance of the colored reaction product was determined at 405 nm in a Multiscan TitertekPlus (Flow, Switzerland). […]

[3] = test system: oligodendrocytes in mixed cerebellar cultures; experiment: Oligodendrocyte cultures treated with HIV gp120 and HNK-1 epitope mimic peptide, RIP immunostaining; format: cell-based, rat
[4] = test system: Ox42 (MAC 1), TNF and GFAP expression; experiment: gp120-mediated inflammation and neuropathy, sciatic nerve Oxycel delivery, spinal cord immunohistochemistry; format: in vivo, rat
Text: Herzberg et al coated the sciatic nerve of rats with oxidized cellulose saturated with gp120 or BSA as control. Persistant hyperalgesia and allodynia were observed throughout a one month testing period in rats treated with gp120. […] This system was utilized to assess the affect of the 8-mer peptide on gp120-mediated inflammation and neuropathy, using Ox42 (MAC 1), TNF and GFAP expression as immunohistochemical markers.
Ox42 (also called MACl) is a general marker for immune/inflammatory activation of the central nervous system (expressed by microglia—when those proliferate and/or extend their processes). If Ox42 marker is present two weeks, and particularly four weeks, after initial neural injury, this indicates a chronic problem. An ongoing inflammatory process in the CNS is correlative of neuropathy. TNF is a cytokine indicating an inflammatory process, and in this case neuronal degeneration. It's expression increases in the CSF of pateints with HIV related neuropathy and is thought to play a role in the degenerative process in these patients (see “role of immune activation and cytokine expression in HIV-1 associated neurologic disease” bay Masaru Yoshioka Walter G Bradley, Paul Shapshak, Isao Nagano, Rene V. Stewart, Ke-Qin Xin, Ashok Srivastava, and Shozo Nakamura in Advance in Neuroimmunology) Vol.5 pp 335-358, 1995. GFAP is a marker for a general activation of astrocytes in the spinal cord and is expressed following damage to the CNS.
Male Sprague Dawley rats weighing 200-225 g were used.
The left sciatic nerve was isolated by blunt dissection, and wrapped with oxidized cellulose (Oxycel, Becton Dickinson) saturated with 250 ul sterile saline containing 400 ng of recombinant gp120 protein alone, or in the presence of 43 ng of the 8-mer L2/HNK-1 mimic peptide (corresponding to a 10×excess […] on a mole-per-mole basis), utilizing the Oxycel delivery method of Eliav et al (Eliav et al (1999) Pain 83(2): 169-82. Eight animals were treated with gp120 alone and eight animals were treated with gp120 and 43 ng peptidomimetic compound.
Animals were euthanized (overdose of xylazine/ketamine) at two and four weeks following surgery and perfused transcardially with ice cold saline followed by 4% paraformaldehyde.
Spinal cords were harvested and cryoprotected overnight at 30% sucrose solution 10 Sections of 40 um thickness from the lumbar enlargement from each animal were thaw mounted onto gelatized slides and stained immunohistochemically for Ox-42 (MACl), TNF and GFAP.

[5] = test system: oligodendrocytes in mixed cerebellar cultures; experiment: Oligodendrocyte cultures treated with HIV gp120 and HNK-1 epitope mimic peptide, RIP immunostaining; format: cell-based, rat; remark: listed apart in the source
Protocol: For these experiments, mixed neural cultures were isolated from rat cerebellum. Briefly, tissue was harvested from postnatal day five rat pups, dissociated and plated on poly-lysine coated 24 well cluster plates in Neural basal medium plus B27 supplement, 1% FBS and penicillin and streptomycin. HNK-1 epitope mimic peptide 8 mer (FLHTRLFV) (SEQ ID NO:8) (1 mM, 100 nM or 10 nM) was added to wells at the time of plating. Three days later, 1 nM gp120 was preincubated with 1 mM, 100 nM or 10 nM HNK-1 peptidomimetic for 1 hour at 37° C. After one hour, gp120 or gp120 plus HNK-1 peptidomimetic was added to mixed cerebellar cultures in sets of 6 replicates. Four days later, cultures were fixed and immunostained with the oligodendrocyte specific antibody marker, RIP. Data was analyzed by counting the number of RIP positive cells in twenty 20×-microscope fields. In addition, the number of RIP positive cells, mature oligodendrocytes with extensive intact membrane sheaths were counted. The cells are depicted in FIG. 20.

L2-412 antibody [6] = experiment: Competition ELISA: binding of mAb L2-412 to immobilized L2/HNK-1 glycolipids; parameters: species or system rat
Protocol: FIG. 2A depicts competition of the L2-412 antibody to immobilized L2/HNK-1 glycolipids by various inhibitors: positive phage (denoted phage 15-15), negative phage (denoted neg. control phage), free peptide (denoted peptide 15-15) and SO3-sugar. L2-412 was preincubated with a stepwise 2-fold dilution series of the free peptide (starting concentration 2.2 mM), SO3-sugar (starting concentration 5 mM), positive phage and negative phage (starting concentration 10^12TUs/ml), and added to the coated glycolipid. After incubation and washing, the bound antibody was detected with HRP anti-rat antibody.
FIG. 2B depicts the percentage inhibition of L2-412 antibody to immobilized L2/HNK-1 glycolipids by various inhibitors. The percentage is calculated for the point in FIG. 2A with the highest concentration of inhibitor. […]
Microtiter plates (Nunc) were coated with the L2/HNK-1 glycolipids (50 μl, 1 μg/ml, dissolved in EtOH) and allowed to dry overnight. While blocking the wells for 2 hours with 0.5% (w/v) fatty-acid-free BSA in PBS, a limiting concentration of ^L2-412, previously determined, was pre-incubated with successive 2-fold dilutions of the inhibitor, starting at a concentration of 2.2 mM for the free peptide, 5 mM for the SO3 sugar and 10^12 positive and negative phages (the negative phages were cloned from the unbound fraction of the first round of screening). […]

[7] = test system: neural cell adhesion to laminin; details: Hall et al. 1995; cited from earlier work
[8] = Hall et al. 1995; cited from earlier work
laminin = molecular target: T1, laminin (Mus musculus, UniProt P19137); experiment: Binding of phage to immobilized laminin; details: laminin 10 μg/ml coating; anti-M13 HRP detection
T1 construct: purchased Gibco/BRL
Protocol: FIG. 5 depicts binding of phage 15-15 and control phage UBR2 to immobilized laminin (100 μl of 10 μg/ml used for coating). Bound phage were detected by HRP-conjugated anti-M13 antibody. The results are presented as OD405 vs. relative concentration of the phage preparation (a relative concentration of 100 corresponds to […] phage).

[9] = molecular target: monoclonal antibody L2-412; experiment: competition ELISA: L2-412 preincubated with inhibitor (2-fold dilutions from 2.2 mM), then binding to immobilized L2/HNK-1 glycolipid
[10] = gp120 (1 nM) + 10 nM peptide, preincubated
[11] = gp120 (1 nM) + 1 uM peptide, preincubated
[12] = gp120 400 ng + 43 ng 8-mer peptide on sciatic nerve, lumbar spinal cord
[13] = gp120 (1 nM) + 100 nM peptide, preincubated

L1: neural cell adhesion molecule L1 [Peptide L1]
cell cytopathic effects of chemotherapeutic agents [1]: reduced

T R L F R V P V F R L G D F W (TRLFRVPVFRLGDFW) [Peptide 15H92]
binding of phage to coated HNK-1 antibody (HNK-1 antibody): bind L2-412 and HNK-1, nearly to the same extent
binding of phage to coated L2-412 antibody (L2-412 antibody [2]): bind L2-412 and HNK-1, nearly to the same extent

F L H T R L F V (FLHTRLFV; m13 library) [Consensus peptide]
fluorescence microscopy of RIP positive oligodendrocytes ([3]; 1 nM gp120 preincubated with 1 uM HNK-1 epitope mimic peptide): indistinguishable from mature RIP positive cells observed in cultures treated with the HNK-1 epitope mimic peptide only
# mature RIP + cells/20 fields ([3]; 1 uM peptide): 13.33 cells/20 fields
Total # RIP + cells/20 fields ([3]; 1 uM peptide): 62.67 cells/20 fields
# mature RIP + cells/20 fields ([3]; 10 uM peptide): 22.33 cells/20 fields
Total # RIP + cells/20 fields ([3]; 10 uM peptide): 75.83 cells/20 fields
Total # RIP + cells/20 fields [3, 10]: 73.83 cells/20 fields
Total # RIP + cells/20 fields [3, 11]: 76.83 cells/20 fields
GFAP immunoreactive area [4, 12]: 8745 pixels
Ox42 immunoreactive area [4, 12]: 1557 pixels
TNF immunoreactive area [4, 12]: 1478 pixels
effect on gp120-induced immunoreactivity ([4]; gp120 + peptide versus Oxycel alone): brings those values back to the same level as with Oxycel alone
cellular morphology of spinal cord sections, light microscopy ([4]; gp120 in combination with the HNK-1 peptide): This cellular morphology was not observed
fluorescence microscopy of RIP positive oligodendrocytes ([5]; 10 nM HNK-1 epitope mimic peptide): Numerous mature RIP positive oligodendrocytes with extensive membrane sheaths were observed
# mature RIP + cells/20 fields ([5]; 100 nM peptide): 16.33 cells/20 fields
Total # RIP + cells/20 fields ([5]; 100 nM peptide): 76.67 cells/20 fields
# mature RIP + cells/20 fields [5, 10]: 8.833 cells/20 fields
# mature RIP + cells/20 fields [5, 13]: 11.17 cells/20 fields
Total # RIP + cells/20 fields [5, 13]: 69.83 cells/20 fields
# mature RIP + cells/20 fields [5, 11]: 12.33 cells/20 fields
effect on mature oligodendrocytes and gp120-associated myelin destruction ([5]; summary of Table 6): increases the number of mature oligodendrocytes and blocks myelin destruction associated with gp 120 treatment

S L A P Y S L R I F V L F G G A (SLAPYSLRIFVLFGGA) [Peptide 15H233]
binding of phage to coated HNK-1 antibody (HNK-1 antibody): bind L2-412 and HNK-1, nearly to the same extent
binding of phage to coated L2-412 antibody (L2-412 antibody [2]): bind L2-412 and HNK-1, nearly to the same extent

F L H T R L F V S D W Y H T (FLHTRLFVSDWYHT; m13 library) [Peptide 15-15]
inhibition of L2-412 binding to immobilized L2/HNK-1 glycolipids (L2-412 antibody [6]; highest inhibitor concentration (free peptide 2.2 mM, SO3-sugar 5 mM, phage 10^12 TUs/ml), no inhibitor = 0%): 30-35%

KGVSSRSYVGCIKNLEISRST
inhibition of HNK-1-mediated neural cell adhesion to laminin [7]: inhibited HNK-1-mediated neural cell adhesion to laminin
binding to the L2/HNK-1 carbohydrate [8]: bound to the L2/HNK-1 carbohydrate in a concentration-dependent manner

F L H T R L F V S D W Y H T P [phage 15-15]
binding of phage to coated HNK-1 antibody (HNK-1 antibody): does not bind HNK-1 antibody to a significant extent
binding of phage to immobilized laminin (laminin): bind to laminin in a concentration dependent manner

S G R G F C C W S N D S A L S [negative phage, reference compound]
inhibitory effect on L2-412 binding to immobilized L2-glycolipids (L2-412 antibody [6]; phage starting at 10^12): did not show this inhibitory effect

FLHTRLFVSDWYHT [peptide 15-15 (free synthetic peptide …)]
percent inhibition [9]: 30 to 35%
